# Earlier results as cited in patent US20050084550A1, “Weight reduction and maintenance method for animals” (International Flora Technologies, priority 2001, published 2005).
# Tests used:
# food intake in mice = conditions: appetite suppressant
# food intake in rats = conditions: appetite suppressant
# food intake in chickens = conditions: appetite suppressant
structure (smiles),measurement,setting,value
CO[C@H]1[C@@H](OC)C[C@@H](O[C@@H]2O[C@H](CO)[C@@H](O)[C@H](O)[C@H]2O)/C(=C\C#N)[C@@H]1O [simmondsin],food intake,food intake in mice,reduces food intake
same,food intake,food intake in rats,reduces food intake
same,food intake,food intake in chickens,reduces food intake
same,solubility in hexane,hexane,not soluble
same,solubility in jojoba oil,jojoba oil,not soluble
